# Results reported in ChEMBL document CHEMBL5537135, “Novel antimicrobial peptides modified with fluorinated sulfono-γ-AA having high stability and targeting multidrug-resistant bacteria infections” (Eur J Med Chem, 2024).
# Active and inactive are the calls of the source. No cut-off for these calls is given here.
# Tests used:
# [1] = test system: Staphylococcus aureus; experiment: Antibacterial activity against methicillin-resistant Staphylococcus aureus ATCC 33591 infected in full-thickness wound BALB/c mouse model assessed as reduction in inflammatory infiltration at 1 mg/kg, ip administered for 1 to 48 hrs and measured after 3 days; assay type: functional, organism-based; details: time 1-120 hrs
# [2] = test system: Pseudomonas aeruginosa; experiment: Antimicrobial activity against Pseudomonas aeruginosa ATCC 27853 assessed as inhibition of visible bacterial growth incubated for 18 hrs by broth-dilution method; assay type: functional
# [3] = test system: Escherichia coli; experiment: Antimicrobial activity against Escherichia coli ATCC 25922 assessed as inhibition of visible bacterial growth incubated for 18 hrs by broth-dilution method; assay type: functional
# [4] = test system: Bacillus subtilis; experiment: Antimicrobial activity against Bacillus subtilis ATCC 23857 assessed as inhibition of visible bacterial growth incubated for 18 hrs by broth-dilution method; assay type: functional
# [5] = test system: Acinetobacter baumannii; experiment: Antimicrobial activity against Acinetobacter baumannii ATCC 19606 assessed as inhibition of visible bacterial growth incubated for 18 hrs by broth-dilution method; assay type: functional
# [6] = test system: Salmonella typhimurium; experiment: Antimicrobial activity against Salmonella typhimurium ATCC 14028 assessed as inhibition of visible bacterial growth incubated for 18 hrs by broth-dilution method; assay type: functional, Salmonella enterica subsp. enterica serovar Typhimurium; details: Salmonella enterica
# [7] = test system: Pseudomonas aeruginosa; experiment: Antimicrobial activity against multidrug-resistant Pseudomonas aeruginosa 516 assessed as inhibition of visible bacterial growth incubated for 18 hrs by broth-dilution method; assay type: functional
# [8] = test system: Pseudomonas aeruginosa; experiment: Antimicrobial activity against multidrug-resistant Pseudomonas aeruginosa 125 assessed as inhibition of visible bacterial growth incubated for 18 hrs by broth-dilution method; assay type: functional
# [9] = test system: Pseudomonas aeruginosa; experiment: Antibacterial activity against Pseudomonas aeruginosa ATCC 27853 infected in C57BL/6 mouse pneumonia model assessed as log reduction in bacterial load in lung at 5 mg/kg, ip administered for 1 to 48 hrs and measured after 3 days; assay type: functional; details: time 1-120 hrs
# [10] = test system: Pseudomonas aeruginosa; experiment: Antimicrobial activity against multidrug-resistant Pseudomonas aeruginosa 119 assessed as inhibition of visible bacterial growth incubated for 18 hrs by broth-dilution method; assay type: functional
# [11] = test system: Staphylococcus epidermidis; experiment: Antimicrobial activity against Staphylococcus epidermidis ATCC 12228 assessed as inhibition of visible bacterial growth incubated for 18 hrs by broth-dilution method; assay type: functional
# [12] = test system: Staphylococcus aureus; experiment: Antimicrobial activity against methicillin-resistant Staphylococcus aureus ATCC 33591 assessed as inhibition of visible bacterial growth incubated for 18 hrs by broth-dilution method; assay type: functional
# [13] = test system: Pseudomonas aeruginosa; experiment: Antibacterial activity against antibiotics-resistant Pseudomonas aeruginosa […] assessed as reduction in microbial growth; assay type: functional
# [14] = test system: Pseudomonas aeruginosa; experiment: Antimicrobial activity against multidrug-resistant Pseudomonas aeruginosa 050 assessed as inhibition of visible bacterial growth incubated for 18 hrs by broth-dilution method; assay type: functional
# [15] = test system: Pseudomonas aeruginosa; experiment: Antimicrobial activity against multidrug-resistant Pseudomonas aeruginosa 073 assessed as inhibition of visible bacterial growth incubated for 18 hrs by broth-dilution method; assay type: functional
# [16] = test system: Pseudomonas aeruginosa; experiment: Antimicrobial activity against multidrug-resistant Pseudomonas aeruginosa 156 assessed as inhibition of visible bacterial growth incubated for 18 hrs by broth-dilution method; assay type: functional
# [17] = test system: Pseudomonas aeruginosa; experiment: Antimicrobial activity against multidrug-resistant Pseudomonas aeruginosa 157 assessed as inhibition of visible bacterial growth incubated for 18 hrs by broth-dilution method; assay type: functional
# [18] = test system: Pseudomonas aeruginosa; experiment: Antimicrobial activity against multidrug-resistant Pseudomonas aeruginosa 061 assessed as inhibition of visible bacterial growth incubated for 18 hrs by broth-dilution method; assay type: functional
# [19] = test system: Staphylococcus aureus; experiment: Antibacterial activity against antibiotics-resistant Staphylococcus aureus ATCC 33591 assessed as reduction in microbial growth; assay type: functional
# [20] = test system: Staphylococcus aureus; experiment: Antimicrobial activity against Staphylococcus aureus ATCC 25923 assessed as inhibition of visible bacterial growth incubated for 18 hrs by broth-dilution method; assay type: functional
# [21] = test system: Pseudomonas aeruginosa; experiment: Antimicrobial activity against multidrug-resistant Pseudomonas aeruginosa 085 assessed as inhibition of visible bacterial growth incubated for 18 hrs by broth-dilution method; assay type: functional
# [22] = test system: Pseudomonas aeruginosa; experiment: Antimicrobial activity against multidrug-resistant Pseudomonas aeruginosa 124 assessed as inhibition of visible bacterial growth incubated for 18 hrs by broth-dilution method; assay type: functional
structure (smiles),measurement,setting,value
CN[C@H](CC(C)C)C(=O)N[C@H]1C(=O)N[C@@H](CC(N)=O)C(=O)N[C@H]2C(=O)N[C@H]3C(=O)N[C@H](C(=O)N[C@H](C(=O)O)c4cc(O)cc(O)c4-c4cc3ccc4O)[C@H](O)c3ccc(c(Cl)c3)Oc3cc2cc(c3O[C@@H]2O[C@H](CO)[C@@H](O)[C@H](O)[C@H]2O[C@H]2C[C@](C)(N)[C@H](O)[C@H](C)O2)Oc2ccc(cc2Cl)[C@H]1O [VANCOMYCIN],Activity,[1],Active
same,MIC,[2],256 µg/mL
same,MIC,[3],256 µg/mL
same,MIC,[4],1 µg/mL
same,MIC,[5],32 µg/mL
same,MIC,[6],128 µg/mL
CC(C)(O/N=C(\C(=O)N[C@@H]1C(=O)N2C(C(=O)[O-])=C(C[n+]3ccccc3)CS[C@H]12)c1csc(N)n1)C(=O)O [CEFTAZIDIME],MIC,[7],1 µg/mL
same,MIC,[8],2 µg/mL
same,MIC,[2],1 µg/mL
same,log(activity),[9],4.75
same,MIC,[10],1 µg/mL
same,MIC,[11],256 µg/mL
same,MIC,[12],258 µg/mL
same,MIC,[3],1 µg/mL
same,MIC,[13],32 µg/mL
same,MIC,[14],1 µg/mL
same,MIC,[15],1 µg/mL
same,MIC,[4],8 µg/mL
same,MIC,[5],4 µg/mL
same,MIC,[16],256 µg/mL
same,MIC,[17],1 µg/mL
same,MIC,[18],1 µg/mL
same,MIC,[19],32 µg/mL
same,MIC,[6],256 µg/mL
same,MIC,[20],4 µg/mL
same,MIC,[21],1 µg/mL
same,MIC,[22],256 µg/mL
